This note sets out measurements from ChEMBL document CHEMBL4392873, “Transformation of Santonin to a Naproxen Analogue with Anti-Inflammatory Activity” (J Nat Prod, 2019).

Experiment [1] is described as follows: Selectivity index, ratio of IC50 for ovine COX1 to IC50 for COX2 (unknown origin).
Experiment [2] concerns the target Prostaglandin G/H synthase 1 (Ovis aries) (UniProt P05979). Put plainly: Inhibition of ovine COX1 assessed as reduction in prostaglandin E2 production at 30 uM incubated for 10 mins before arachidonic acid addition and measured after 25 mins by LC-MS/MS analysis.
Experiment [3] has as its system Prostaglandin G/H synthase 2. In words: Inhibition of COX2 (unknown origin) assessed as reduction in prostaglandin E2 production at 30 uM incubated for 10 mins before arachidonic acid addition and measured after 25 mins by LC-MS/MS analysis. The note with it: Homo sapiens.

The structures appear in SMILES notation.

In the case of `COC(=O)[C@@H](C)c1ccc2c(C)cc(O)c(C)c2c1`, the Ratio IC50 in experiment [1] turned out to be 0.496. For the same molecule, the values for the inhibition in experiment [2] and in experiment [3] were 52.9% and 21.8%, respectively.
